According to PMC9374667 (Communications Biology, 2022):
Several values for one entry are separate records, joined by “and”; a condition that tells them apart may be missing. Equal values may be shown once. Read-outs that look alike come from different tables or passages of the source.

How the values were obtained:
IKKε [1] = biological target: T1, IKKε (Mus musculus, UniProt Q9R0T8); experiment: 3T3-L1 adipocytes transfected with IKKε plasmid (western blotting, cAMP, glycerol, ISO); assay type: cell-based, Murine; design: endogenous in cells; host or cells: differentiated 3T3-L1 adipocytes; IKKε (western blotting, Figure 8h) / UCP1 (western blotting, Figure 8i) / UCP1 (western blotting, Figure 8j): scale not given here; cAMP levels (Figure 8k) / Glycerol release (Figure 8l): unit not given here
T1 sequence (Q9R0T8 1-717): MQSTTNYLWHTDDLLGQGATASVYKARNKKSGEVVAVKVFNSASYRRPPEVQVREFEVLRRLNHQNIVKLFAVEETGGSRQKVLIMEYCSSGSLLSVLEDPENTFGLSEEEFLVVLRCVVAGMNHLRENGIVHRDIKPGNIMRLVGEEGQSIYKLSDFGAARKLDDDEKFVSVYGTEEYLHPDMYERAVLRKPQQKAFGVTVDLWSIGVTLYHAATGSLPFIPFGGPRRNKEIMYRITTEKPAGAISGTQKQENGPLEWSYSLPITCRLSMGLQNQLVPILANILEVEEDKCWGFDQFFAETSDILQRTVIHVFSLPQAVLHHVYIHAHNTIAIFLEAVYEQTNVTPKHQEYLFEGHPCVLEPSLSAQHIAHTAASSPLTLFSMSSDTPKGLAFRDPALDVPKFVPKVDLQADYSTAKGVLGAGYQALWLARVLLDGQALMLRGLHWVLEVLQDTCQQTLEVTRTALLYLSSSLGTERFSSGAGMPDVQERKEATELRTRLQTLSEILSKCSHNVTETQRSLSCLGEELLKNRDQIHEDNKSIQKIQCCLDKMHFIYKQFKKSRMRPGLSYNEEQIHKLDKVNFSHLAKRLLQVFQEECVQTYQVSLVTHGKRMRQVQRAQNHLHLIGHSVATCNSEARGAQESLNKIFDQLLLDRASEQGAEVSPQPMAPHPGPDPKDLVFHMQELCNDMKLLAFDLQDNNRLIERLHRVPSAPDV
Procedure: Small interference RNA transfection (siRNA) was performed using 4 μM TBK1 siRNA (siTBK1) or 4 μM […]ε) or corresponding NC siRNA (siNC). The epididymal adipose tissue was dissected, the fresh adipose tissue was weighed and rapidly rinsed with PBS. The adipose tissue was cut and incubated with isoproterenol (10 μM) for 2 h, and homogenized in a cold cleavage buffer to prepare the adipose tissue homogenate. Then the homogenate was centrifuged at 12,000 × g at 4 °C for 15 min, and the supernatant was collected. […] Then the cells were lysed in a petri dish, scraped off, and centrifuged at 12,000 × g at 4 °C for 15 min before the supernatant was collected. […] And concentrations were further standardized according to protein concentration. The adipose tissue or 3T3-L1 adipocytes were homogenized by ultrasound in an ice-cold RIPA lysis buffer containing 1% PMSF and centrifuged at 12,000 × g at 4°C for 15 min to collect the supernatant. The BCA protein assay kit (Beyotime, Shanghai, China) was used to detect the total protein concentration. Proteins (20-30 μg) of the sample were separated by 10% SDS-PAGE gel and transferred onto polyvinylidene difluoride (PVDF) membranes. Then the PVDF membranes were blocked in 5% skim milk powder in TBS containing 1% Tween-20 (TBST) for 2 h at room temperature and washed with TBST for 3 times. […] After washing, the membranes were incubated with horseradish peroxidase-conjugated secondary antibodies (in 5% skim milk powder) for 1 h at room temperature. Finally, the membranes were treated with enhanced chemiluminescence agents (Tanon, Shanghai, China) and the signals were monitored using the Tanon 5200 multi chemiluminescent imaging system (Tanon, Shanghai, China).

IKKε [2] = biological target: T1, IKKε; experiment: IKKε activity assay in BAT; assay type: in vivo, mice; design: The adipose tissue was ultrasound-crushed in PBS buffer solution (1:9 w/v) to prepare the tissue homogenate; from tissue; host or cells: epididymal white adipose tissue (eWAT) and brown adipose tissue (BAT) of C57BLKS WT and db/db mice; details: for the expression of IKKε in BAT of db/db mice: Figure 6l, individual values
Procedure: The adipose tissue was ultrasound-crushed in PBS buffer solution (1:9 w/v) to prepare the tissue homogenate. The tissue homogenate was centrifuged at 5000 × g for 10 min, and the supernatant was taken for detection. Briefly, samples or standards were added to the microplates pre-coated with IKKε antibody or TBK1 antibody. Then horseradish peroxidase (HRP) labeled antibody was added and incubated at 37 °C for 60 min. After thorough washing, the 3,3′,5,5′-tetramethylbenzidine (TMB) substrate was used for color development, and the absorbance (OD value) was determined at 450 nm.

[3] = 3T3-L1 adipocytes transfected with IKKε plasmid, 24 h of BJ treatment

Structure (SMILES): CC(C)Cc1ccc(C(C)C(=O)[O-])cc1.COc1ccc2cc3[n+](cc2c1OC)CCc1cc2c(cc1-3)OCO2.O.O.O.O [BJ, berberine-ibuprofen]
- IKKε (western blotting, Figure 8h) (IKKε [1]): 0.3064 and 0.3337 and 0.413
- IKKε (western blotting, Figure 8h) (IKKε [1]; 3μg IKKε+10μM BJ): 0.3573 and 0.3516 and 0.3871
- UCP1 (western blotting, Figure 8i) (IKKε [1]; 3μg IKKε+10μM BJ): 0.8819 and 0.7296 and 0.665
- UCP1 (western blotting, Figure 8i) (IKKε [1]; 10μM BJ): 0.7179 and 0.7672 and 0.7892
- IKKε protein level (IKKε [1]; [3]): significantly decreased
- UCP1 protein level (IKKε [1]; [3]): significantly increased
- Glycerol release (Figure 8l) (IKKε [1]; BJ): 86.9484 and 84.4172 and 92.0109
- UCP1 (western blotting, Figure 8j) (IKKε [1]; BJ): 0.7729 and 0.7093 and 0.8167
- cAMP levels (Figure 8k) (IKKε [1]; BJ): 0.1832 and 0.1783 and 0.1808
- Glycerol release (Figure 8l) (IKKε [1]; BJ+IKKε): 68.3861 and 70.0736 and 61.6362
- UCP1 (western blotting, Figure 8j) (IKKε [1]; BJ+IKKε): 0.4841 and 0.4628 and 0.4991
- cAMP levels (Figure 8k) (IKKε [1]; BJ+IKKε): 0.1738 and 0.178 and 0.1687
- Glycerol release (Figure 8l) (IKKε [1]; ISO+BJ): 156.135 and 153.604 and 151.073
- UCP1 (western blotting, Figure 8j) (IKKε [1]; ISO+BJ): 0.9653 and 0.8916 and 1.268
- cAMP levels (Figure 8k) (IKKε [1]; ISO+BJ): 0.3323 and 0.3162 and 0.3269
- Glycerol release (Figure 8l) (IKKε [1]; ISO+BJ+IKKε): 123.229 and 124.917 and 128.292
- UCP1 (western blotting, Figure 8j) (IKKε [1]; ISO+BJ+IKKε): 0.6833 and 0.6687 and 0.7939
- cAMP levels (Figure 8k) (IKKε [1]; ISO+BJ+IKKε): 0.2266 and 0.2216 and 0.2337
- Inhibition of ISO efficacy (UCP1, glycerol release, cAMP) by IKKε overexpression (IKKε [1]; transfected 3T3-L1 adipocytes, 10 µM BJ): ameliorated
- the expression of IKKε in BAT of db/db mice (IKKε [2]; db/db+BJ 75mg/kg): 0.441 U/g and 0.458 U/g and 0.427 U/g and 0.409 U/g and 0.371 U/g and 0.436 U/g
- the expression of IKKε in BAT of db/db mice (IKKε [2]; db/db+BJ 150mg/kg): 0.429 U/g and 0.4 U/g and 0.314 U/g and 0.335 U/g and 0.348 U/g and 0.398 U/g
- IKKε activity and expression levels in BAT (IKKε [2]; db/db mice, both doses of BJ): had no effect
